± gives the uncertainty stated by the source.
Assay: xn = mol fraction of the nth substance listed

CC(C)CCl + C1CCOC1
viscosity [mPa·s], 101 kPa
Conditions | 298.15 K | 313.15 K
x2 = 0.0537 | 0.4311 ± 0.0053 | 0.368 ± 0.0051
x2 = 0.1037 | 0.4325 ± 0.0053 | 0.3694 ± 0.005
x2 = 0.2081 | 0.4353 ± 0.0053 | 0.3723 ± 0.005
x2 = 0.3079 | 0.4379 ± 0.0053 | 0.3751 ± 0.005
x2 = 0.41 | 0.4409 ± 0.0052 | 0.3781 ± 0.005
x2 = 0.5085 | 0.4442 ± 0.0052 | 0.381 ± 0.005
x2 = 0.5964 | 0.4472 ± 0.0052 | 0.3837 ± 0.005
x2 = 0.705 | 0.4512 ± 0.0052 | 0.3871 ± 0.0049
x2 = 0.8051 | 0.455 ± 0.0052 | 0.3904 ± 0.0049
x2 = 0.8989 | 0.4589 ± 0.0051 | 0.3938 ± 0.0049
x2 = 0.951 | 0.461 ± 0.0051 | 0.3957 ± 0.0049

ClC(Cl)=C(Cl)Cl + C1CCOC1
303.15 K, 101 kPa
Conditions | viscosity [mPa·s]
x2 = 0.0667 | 0.7821 ± 0.0063
x2 = 0.1429 | 0.763 ± 0.0062
x2 = 0.2457 | 0.7362 ± 0.006
x2 = 0.3692 | 0.7008 ± 0.0058
x2 = 0.4384 | 0.6795 ± 0.0056
x2 = 0.5309 | 0.6487 ± 0.0054
x2 = 0.6897 | 0.5914 ± 0.005
x2 = 0.7605 | 0.5641 ± 0.0048
x2 = 0.8435 | 0.5312 ± 0.0045
x2 = 0.9213 | 0.4988 ± 0.0043

ClC(Cl)=C(Cl)Cl + C1COCCO1
303.15 K, 101.33 kPa
Conditions | viscosity [mPa·s]
x2 = 0.0711 | 0.8321 ± 0.0061
x2 = 0.1527 | 0.8661 ± 0.0063
x2 = 0.2465 | 0.8991 ± 0.0065
x2 = 0.3656 | 0.9331 ± 0.0068
x2 = 0.4126 | 0.9447 ± 0.0068
x2 = 0.5332 | 0.9725 ± 0.007
x2 = 0.6532 | 0.9982 ± 0.0072
x2 = 0.7921 | 1.03 ± 0.0074
x2 = 0.8937 | 1.055 ± 0.0076
x2 = 0.9581 | 1.074 ± 0.0078

O=[N+]([O-])c1ccccc1 + C1COCCO1
303.15 K, 101 kPa
Conditions | viscosity [mPa·s]
x1 = 0.0852 | 1.058 ± 0.0073
x1 = 0.1732 | 1.058 ± 0.0073
x1 = 0.265 | 1.087 ± 0.0075
x1 = 0.3592 | 1.107 ± 0.0077
x1 = 0.4563 | 1.148 ± 0.008
x1 = 0.5574 | 1.212 ± 0.0085
x1 = 0.6625 | 1.274 ± 0.009
x1 = 0.7711 | 1.369 ± 0.0096
x1 = 0.8829 | 1.47 ± 0.01

ClC(Cl)=C(Cl)Cl + CC1CCCCC1
303.15 K, 101 kPa
Conditions | viscosity [mPa·s]
x1 = 0.1166 | 0.637 ± 0.015
x1 = 0.2246 | 0.648 ± 0.014
x1 = 0.3047 | 0.658 ± 0.013
x1 = 0.4335 | 0.679 ± 0.012
x1 = 0.5554 | 0.708 ± 0.011
x1 = 0.6523 | 0.734 ± 0.01
x1 = 0.77 | 0.762 ± 0.009
x1 = 0.8108 | 0.773 ± 0.009
x1 = 0.8864 | 0.79 ± 0.008
x1 = 0.9342 | 0.801 ± 0.008

C1CCC2CCCCC2C1 (stereo unspecified) + CC12CC3CC(C1)CC(C)(C3)C2
viscosity [mPa·s], 100 kPa
Conditions | x2 = 0.1034 | x2 = 0.2043 | x2 = 0.305 | x2 = 0.4034 | x2 = 0.5024 | x2 = 0.6048 | x2 = 0.7046 | x2 = 0.8094 | x2 = 0.9013
293.15 K | 2.607 ± 0.014 | 2.713 ± 0.014 | 2.812 ± 0.014 | 2.919 ± 0.014 | 3.039 ± 0.015 | 3.167 ± 0.015 | 3.31 ± 0.016 | 3.465 ± 0.016 | 3.622 ± 0.016
298.15 K | 2.361 ± 0.013 | 2.449 ± 0.013 | 2.53 ± 0.01 | 2.628 ± 0.014 | 2.728 ± 0.014 | 2.844 ± 0.014 | 2.967 ± 0.015 | 3.102 ± 0.015 | 3.237 ± 0.015
303.15 K | 2.148 ± 0.013 | 2.227 ± 0.013 | 2.299 ± 0.013 | 2.384 ± 0.013 | 2.468 ± 0.013 | 2.57 ± 0.014 | 2.675 ± 0.014 | 2.799 ± 0.014 | 2.909 ± 0.015
313.15 K | 1.802 ± 0.012 | 1.86 ± 0.012 | 1.917 ± 0.012 | 1.98 ± 0.012 | 2.046 ± 0.012 | 2.125 ± 0.013 | 2.206 ± 0.013 | 2.298 ± 0.013 | 2.385 ± 0.013
323.15 K | 1.505 ± 0.011 | 1.547 ± 0.011 | 1.592 ± 0.011 | 1.641 ± 0.012 | 1.697 ± 0.012 | 1.759 ± 0.012 | 1.825 ± 0.012 | 1.902 ± 0.012 | 1.974 ± 0.012

CCCCCO + CC#N
viscosity [mPa·s], 101 kPa
Conditions | 298.15 K | 303.15 K | 308.15 K
x2 = 0.1083 | 2.485 ± 0.22 | 1.966 ± 0.18 | 1.752 ± 0.16
x2 = 0.1933 | 1.918 ± 0.17 | 1.703 ± 0.15 | 1.519 ± 0.14
x2 = 0.2503 | 1.717 ± 0.15 | 1.477 ± 0.14 | 1.334 ± 0.12
x2 = 0.3407 | 1.33 ± 0.12 | 1.2 ± 0.11 | 1.088 ± 0.1
x2 = 0.4797 | 0.963 ± 0.093 | 0.879 ± 0.086 | 0.804 ± 0.079
x2 = 0.5899 | 0.747 ± 0.075 | 0.688 ± 0.07 | 0.636 ± 0.065
x2 = 0.6833 | 0.619 ± 0.064 | 0.569 ± 0.06 | 0.527 ± 0.056
x2 = 0.7642 | 0.525 ± 0.056 | 0.486 ± 0.053 | 0.458 ± 0.05
x2 = 0.8347 | 0.452 ± 0.05 | 0.428 ± 0.048 | 0.41 ± 0.046
x2 = 0.8958 | 0.418 ± 0.047 | 0.392 ± 0.045 | 0.369 ± 0.043
x2 = 0.9508 | 0.374 ± 0.043 | 0.357 ± 0.042 | 0.342 ± 0.041

CN(C)C=O + CC#N
Conditions | viscosity [mPa·s]
298.15 K, 101 kPa, x2 = 0.0113 | 0.794 ± 0.0094
298.15 K, 101 kPa, x2 = 0.0144 | 0.792 ± 0.0094
298.15 K, 101 kPa, x2 = 0.0841 | 0.761 ± 0.009
298.15 K, 101 kPa, x2 = 0.103 | 0.747 ± 0.0089
298.15 K, 101 kPa, x2 = 0.1527 | 0.712 ± 0.0085
298.15 K, 101 kPa, x2 = 0.2044 | 0.685 ± 0.0082
298.15 K, 101 kPa, x2 = 0.2682 | 0.654 ± 0.0078
298.15 K, 101 kPa, x2 = 0.3131 | 0.615 ± 0.0074
298.15 K, 101 kPa, x2 = 0.3696 | 0.598 ± 0.0072
298.15 K, 101 kPa, x2 = 0.3798 | 0.603 ± 0.0073
298.15 K, 101 kPa, x2 = 0.4759 | 0.552 ± 0.0067
298.15 K, 101 kPa, x2 = 0.5317 | 0.529 ± 0.0064
298.15 K, 101 kPa, x2 = 0.5759 | 0.492 ± 0.006
298.15 K, 101 kPa, x2 = 0.6348 | 0.448 ± 0.0055
298.15 K, 101 kPa, x2 = 0.6876 | 0.499 ± 0.0061
298.15 K, 101 kPa, x2 = 0.743 | 0.408 ± 0.0051
298.15 K, 101 kPa, x2 = 0.7906 | 0.382 ± 0.0048
298.15 K, 101 kPa, x2 = 0.8453 | 0.382 ± 0.0048
298.15 K, 101 kPa, x2 = 0.8954 | 0.345 ± 0.0043
298.15 K, 101 kPa, x2 = 0.9485 | 0.346 ± 0.0044
298.15 K, 101 kPa, x2 = 0.9723 | 0.333 ± 0.0042
303.15 K, 101 kPa, x2 = 0.1176 | 0.6994 ± 0.018
303.15 K, 101 kPa, x2 = 0.2399 | 0.6372 ± 0.017
303.15 K, 101 kPa, x2 = 0.4348 | 0.5495 ± 0.015
303.15 K, 101 kPa, x2 = 0.5933 | 0.4816 ± 0.013
303.15 K, 101 kPa, x2 = 0.7275 | 0.4283 ± 0.011
303.15 K, 101 kPa, x2 = 0.8419 | 0.3842 ± 0.01
303.15 K, 101 kPa, x2 = 0.9418 | 0.3496 ± 0.0096
303.15 K, 101.33 kPa, x2 = 0.0953 | 0.7392 ± 0.005
303.15 K, 101.33 kPa, x2 = 0.1981 | 0.6991 ± 0.0048
303.15 K, 101.33 kPa, x2 = 0.3038 | 0.6537 ± 0.0046
303.15 K, 101.33 kPa, x2 = 0.3988 | 0.6046 ± 0.0044
303.15 K, 101.33 kPa, x2 = 0.5 | 0.5476 ± 0.0041
303.15 K, 101.33 kPa, x2 = 0.6013 | 0.494 ± 0.0039
303.15 K, 101.33 kPa, x2 = 0.6983 | 0.4471 ± 0.0037
303.15 K, 101.33 kPa, x2 = 0.8009 | 0.4023 ± 0.0035
303.15 K, 101.33 kPa, x2 = 0.8992 | 0.3607 ± 0.0034

ClC(Cl)=C(Cl)Cl + CC#N
303.15 K, 101.32 kPa
Conditions | viscosity [mPa·s]
x2 = 0.1294 | 0.7489 ± 0.009
x2 = 0.1929 | 0.7334 ± 0.0089
x2 = 0.3101 | 0.699 ± 0.0086
x2 = 0.4022 | 0.6632 ± 0.0083
x2 = 0.4671 | 0.631 ± 0.008
x2 = 0.5673 | 0.5728 ± 0.0076
x2 = 0.6707 | 0.505 ± 0.0071
x2 = 0.7358 | 0.4619 ± 0.0067
x2 = 0.846 | 0.3947 ± 0.0062
x2 = 0.9295 | 0.3522 ± 0.0058

c1ccccc1 + CC#N
101 kPa
Conditions | viscosity [mPa·s]
298.15 K, x2 = 0.0325 | 0.5825 ± 0.007
298.15 K, x2 = 0.0341 | 0.58 ± 0.007
298.15 K, x2 = 0.0416 | 0.5745 ± 0.0069
298.15 K, x2 = 0.0854 | 0.574 ± 0.0069
298.15 K, x2 = 0.142 | 0.5155 ± 0.0063
298.15 K, x2 = 0.2097 | 0.493 ± 0.006
298.15 K, x2 = 0.2578 | 0.4835 ± 0.0059
298.15 K, x2 = 0.3076 | 0.479 ± 0.0059
298.15 K, x2 = 0.3588 | 0.459 ± 0.0056
298.15 K, x2 = 0.4192 | 0.4365 ± 0.0054
298.15 K, x2 = 0.4751 | 0.4295 ± 0.0053
298.15 K, x2 = 0.5205 | 0.4045 ± 0.005
298.15 K, x2 = 0.5786 | 0.394 ± 0.0049
298.15 K, x2 = 0.6344 | 0.388 ± 0.0048
298.15 K, x2 = 0.6908 | 0.375 ± 0.0047
298.15 K, x2 = 0.7377 | 0.379 ± 0.0047
298.15 K, x2 = 0.7901 | 0.369 ± 0.0047
298.15 K, x2 = 0.7943 | 0.3555 ± 0.0045
298.15 K, x2 = 0.8416 | 0.3535 ± 0.0044
298.15 K, x2 = 0.8962 | 0.3455 ± 0.0044
298.15 K, x2 = 0.9472 | 0.3275 ± 0.0041
308.15 K, x1 = 0.1018 | 0.3278 ± 0.0078
308.15 K, x1 = 0.2042 | 0.3407 ± 0.008
308.15 K, x1 = 0.303 | 0.3576 ± 0.0082
308.15 K, x1 = 0.4008 | 0.378 ± 0.0086
308.15 K, x1 = 0.4892 | 0.3939 ± 0.0088
308.15 K, x1 = 0.5921 | 0.4163 ± 0.0091
308.15 K, x1 = 0.6906 | 0.4413 ± 0.0095
308.15 K, x1 = 0.8017 | 0.4762 ± 0.01
308.15 K, x1 = 0.8951 | 0.4954 ± 0.01

Source: the CheMixHub viscosity set
